Patent publication US6534650B2, “Benzisoxazole and 4-amidino-3-hydroxyphenyl chemical intermediates” (Eli Lilly and Company, priority 1996, dated 2003)
Counter-ions that a name gives are not always drawn. Like-named read-outs stand apart in the source and are kept apart here.

How the values were obtained:
[1] = tested on: thrombin time (TT) in test plasma; experiment: Anticoagulation determination: thrombin time (TT) in plasma; assay type: biochemical; details: compound added to plasma; linear extrapolation to doubling of the clotting time
Procedure: Dog plasma and rat plasma are obtained from conscious mixed-breed hounds (either sex, hazelton-LRE, Kalamazoo, Mich., U.S.A.) or from anesthetized male Sprague-Dawley rats (Harlan Sprague-Dawley, Inc., Indianapolis, Ind., U.S.A.) by venipuncture into 3.8 percent citrate. Fibrinogen is prepared from in-date ACD human blood as the fraction I-2 according to previous procedures and specifications. Smith, Biochem. J., 185, 1-11 (1980); and Smith, et al., Biochemistry, 11, 2958-2967 (1972). Human fibrinogen is also purchased as 98 percent pure/plasmin free from American Diagnostica, Greenwich, Conn. Coagulation reagents ACTIN, Thromboplastin, and Human plasma are from Baxter Healthcare Corp., Dade Division, Miami, Fla. Bovine thrombin from Parke-Davis (Detroit, Mich.) is used for coagulation assays in plasma.
Coagulation assay procedures are as previously described. Smith, et al., Thrombosis Research, 50, 163-174 (1988). A CoAScreener coagulation instrument (American LABor, Inc.) is used for all coagulation assay measurements. The thrombin time (TT) is measured by adding 0.05 ml saline and 0.05 ml thrombin (10 NIH units/ml) to 0.05 ml test plasma. The activated partial thromboplastin time (APTT) is measured by incubation of 0.05 ml test plasma with 0.05 ml Actin reagent for 120 seconds followed by 0.05 ml CaCl2 (0.02M). The prothrombin time (PT) is measured by adding 0.05 ml saline and 0.05 ml Thromboplastin-C reagent to 0.05 ml test plasma. The compounds of formula I are added to human or animal plasma over a wide range of concentrations to determine prolongation effects on the TT, APTT and PT assays. Linear extrapolations are performed to estimate the concentrations required to double the clotting time for each assay. Each of the particularly preferred examples of the invention listed above was determined to have a TT value of less than 50 ng/mL. For example, the respective values (in ng/mL) for TT were 6, 6 and 23 for the compounds of Examples 1, 3 and 5.

human thrombin = human thrombin (Homo sapiens, UniProt P00734); experiment: Inhibition of the amidase activity of thrombin (chromogenic substrate), Kass; assay type: biochemical; details: purified human thrombin, N-benzoyl-L-Phe-L-Val-L-Arg-p-nitroanilide substrate, pH 7.4; mean over a range of concentrations
Procedure: The assay is carried out by mixing 50 μl buffer (0.03M Tris, 0.15M NaCl, pH 7.4) with 25 μl of human thrombin solution (purified human thrombin, Enzyme Research Laboratories, South Bend, Ind., at 8 NIH units/ml) and 25 μl of test compound in a solvent (50% aqueous methanol (v:v)). Then 150 μl of an aqueous solution of the chromogenic substate (at 0.25 mg/ml) are added and the rates of hydrolysis of the substrate are measured by monitoring the reactions at 405 nm for the release of p-nitroaniline. Standard curves are constructed by plotting free thrombin concentration against hydrolysis rate. The hydrolysis rates observed with test compounds are then converted to “free thrombin” values in the respective assays by use of the standard curves. The bound thrombin (bound to test compound) is calculated by subtracting the amount of free thrombin observed in each assay from the known initial amount of thrombin used in the assay. The amount of free inhibitor in each assay is calculated by subtracting the number of moles of bound thrombin from the number of moles of added inhibitor (test compound).
The Kass value is the hypothetical equilibrium constant for the reaction between thrombin and the test compound (I). [formula]
Kass is calculated for a range of concentrations of test compounds and the mean value reported in units of liter per mole. […] For example, each of the particularly preferred examples of the invention listed above was determined to have a Kass of at least 100×10^6 L/mole.

[2] = Octanol/water distribution coefficient logD at pH 7.4; assay type: physicochemical

| Structure (SMILES) | TT (concentration required to double the thrombin clotting time) [1] [ng/mL] | Kass (hypothetical equilibrium constant for the reaction between thrombin and the test compound) (human thrombin) | logD [2] | ΔlogD(7.4) [2] [log units] | ΔlogD(7.4) ([2]; change versus the corresponding amidino-phenyl compound) [log units] | logD ([2]; octanol/water distribution coefficient, read-out: logD(7.4)) |
| --- | --- | --- | --- | --- | --- | --- |
| N=C(N)c1ccc(CNC(=O)[C@@H]2CCCN2C(=O)[C@H](N)CC2CCCCC2)cc1O [Example 1, D-cyclohexylalanyl-N-[[4-(aminoiminomethyl)-3-hydroxyphenyl]methyl]-L-prolinamide dihydrochloride] | 6 | 7.7e+08 L/mol | – | – | – | – |
| CCS(=O)(=O)N[C@H](CC1CCCCC1)C(=O)N1CCC[C@H]1C(=O)NCc1ccc(C(=N)N)c(O)c1 [Example 5, N-ethylsulfonyl-D-cyclohexylalanyl-N-[[4-(aminoiminomethyl)-3-hydroxyphenyl]methyl]-L-prolinamide hydrochloride] | 23 | 1e+08 L/mol | 1.91 | 5.80 | – | – |
| N=C(N)c1ccc(CNC(=O)[C@@H]2CCCN2C(=O)[C@@H](CC2CCCCC2)NCC(=O)O)cc1O [Example 3, N-carboxymethyl-D-cyclohexylalanyl-N-[[4-(aminoiminomethyl)-3-hydroxyphenyl]methyl]-L-prolinamide hydrochloride] | 6 | 1,200×10^6 L/mole | – | – | 1.13 | 0.55 |
